Data: US8648066B2 (Exelixis, Inc., priority 2009, dated 2014)

Target: mTOR/GbL/Raptor (mTORC1) (Homo sapiens, UniProt P42345)
Experiment: mTOR/GbL/Raptor (mTORC1) ELISA assay
Type: biochemical
Settings: phosphorylation of 4E-BP1; 0.2 nM mTORC1, 10 μM ATP; read-out: IC50 in this assay (mTORC1 ELISA)
Experimental: The measurement of mTORC1 enzyme activity was performed in an ELISA assay format following the phosphorylation of 4E-BP1 protein. All experiments were performed in the 384-well format. Generally, 0.5 μL DMSO containing varying concentrations of the test Compound was mixed with 15 μL enzyme solution. Kinase reactions were initiated with the addition of 15 μL of substrates-containing solution. The assay conditions were as follows; 0.2 nM mTORC1, 10 μM ATP and 50 nM NHis-tagged 4E-BP1 in 20 mM Hepes, pH 7.2, 1 mM DTT, 50 mM NaCl, 10 mM MnCl2, 0.02 mg/mL BSA, 0.01% CHAPS, 50 mM β-glycerophosphate. Following an incubation of 120 minutes at ambient temperature, 20 μL of the reaction volume was transferred to a Ni-Chelate-coated 384-well plate. The binding step of the 4E-BP1 protein proceeded for 60 minutes, followed by washing 4 times each with 50 μL of Tris-buffered saline solution (TBS). Anti-phospho-4E-BP1 rabbit-IgG (20 μL, 1:5000) in 5% BSA-TBST (0.2% Tween-20 in TBS) was added and further incubated for 60 minutes. Incubation with a secondary HRP-tagged anti-IgG was similarly performed after washing off the primary antibody (4 washes of 50 μL). Following the final wash step with TBST, 20 μL of SuperSignal ELISA Femto (Pierce Biotechnology) was added and the luminescence measured using an EnVision plate reader.

How did the IC50 turn out when `Cc1nc2ccc(-c3ccc4c(c3)CN(c3nc(CNC5CC5)nc5c3CC(C)(C)CC5)CCO4)cc2[nH]1` [Example 588, N-({6,6-dimethyl-4-[7-(2-methyl-1H-benzimidazol-6-yl)-2,3-dihydro-1,4-benzoxazepin-4(5H)-yl]-5,6,7,8-tetrahydroquinazolin-2-yl}methyl)cyclopropanamine] was run?
Its IC50 is 10 to 50 nM.

How did the IC50 turn out when `Cc1nc(CN(C)C)nc(N2CCOc3ccc(-c4cnc5sc(N)nc5c4)cc3C2)c1C` [Example 671, 6-(4-{2-[(dimethylamino)methyl]-5,6-dimethylpyrimidin-4-yl}-2,3,4,5-tetrahydro-1,4-benzoxazepin-7-yl)[1,3]thiazolo[5,4-b]pyridin-2-amine] was run?
Its IC50 is 250 to 1000 nM.

`Cc1nc2ncc(-c3ccc4c(c3)CN(c3nc(CN(C)C)nc5c3CC(C)(C)CC5)CCO4)cc2[nH]1` [Example 353, 1-{6,6-dimethyl-4-[7-(2-methyl-1H-imidazo[4,5-b]pyridin-6-yl)-2,3-dihydro-1,4-benzoxazepin-4(5H)-yl]-5,6,7,8-tetrahydroquinazolin-2-yl}-N,N-dimethylmethanamine] was tested. Which IC50 did it give?
The IC50 was ≤ 10 nM.

How did the IC50 turn out when `CCNc1nc2ncc(-c3ccc4c(c3)CN(c3nc(C)nc5cc(OC)ccc35)CCO4)cc2[nH]1` [Example 642, N-ethyl-6-{4-[2-methyl-7-(methyloxy)quinazolin-4-yl]-2,3,4,5-tetrahydro-1,4-benzoxazepin-7-yl}-1H-imidazo[4,5-b]pyridin-2-amine] was run?
The IC50 was 10 to 50 nM.

`Cc1nc2ccc(-c3ccc4c(c3)CN(c3ccnc(C)c3Cc3ccccc3)CCO4)cc2[nH]1` [Example 101, 7-(2-methyl-1H-benzimidazol-6-yl)-4-[2-methyl-3-(phenylmethyl)pyridin-4-yl]-2,3,4,5-tetrahydro-1,4-benzoxazepine] was tested. Which IC50 did it give?
The IC50 was 10 to 50 nM.

How did the IC50 turn out when `COc1cc2c(N3CCOc4ccc(-c5ccc6nc(C)[nH]c6c5)cc4C3)ncnc2cc1Br` [Example 31, 4-[7-bromo-6-(methyloxy)quinazolin-4-yl]-7-(2-methyl-1H-benzimidazol-6-yl)-2,3,4,5-tetrahydro-1,4-benzoxazepine] was run?
The IC50 was 250 to 1000 nM.

How did the IC50 turn out when `COc1ccc2c(N3CCOc4ccc(-c5ccc(N)cc5)cc4C3)nc(C)nc2c1` [Example 504, 4-{4-[2-methyl-7-(methyloxy)quinazolin-4-yl]-2,3,4,5-tetrahydro-1,4-benzoxazepin-7-yl}aniline] was run?
The IC50 was 250 to 1000 nM.

How did the IC50 turn out when `CC1(C)CCc2ncnc(N3CCOc4ccc(-c5cnc(N)c(S(=O)(=O)NCC6CNC6)c5)cc4C3)c2C1` [Example 415, 2-amino-N-(azetidin-3-ylmethyl)-5-[4-(6,6-dimethyl-5,6,7,8-tetrahydroquinazolin-4-yl)-2,3,4,5-tetrahydreo-1,4-benzoxazepin-7-yl]pyridine-3-sulfonamide] was run?
The IC50 was 10 to 50 nM.

With `CC1(C)C=Cc2ncnc(N3CCOc4ccc(-c5cnc(N)c(S(=O)(=O)N6CC[C@@H](N)C6)c5)cc4C3)c2C1` [Example 450, 3-{[(3R)-3-aminopyrrolidin-1-yl]sulfonyl}-5-[4-(6,6-dimethyl-5,6-dihydroquinazolin-4-yl)-2,3,4,5-tetrahydro-1,4-benzoxazepin-7-yl]pyridin-2-amine] as the compound, how does the IC50 read?
The IC50 was ≤ 10 nM.

`COc1cc2nccc(N3CCOc4ccc(-c5cnc6nc(N)[nH]c6c5)cc4C3)c2cc1OC` [Example 188, 6-{4-[6,7-bis(methyloxy)quinolin-4-yl]-2,3,4,5-tetrahydro-1,4-benzoxazepin-7-yl}-1H-imidazo[4,5-b]pyridin-2-amine] was tested. Which IC50 did it give?
Its IC50 is 50 to 250 nM.

Which IC50 does the source give for `CC1=CC(C)(C)Cc2c1ncnc2N1CCOc2ccc(-c3cnc4nc(C)[nH]c4c3)cc2C1` [Example 554, 7-(2-methyl-1H-imidazo[4,5-b]pyridin-6-yl)-4-(6,6,8-trimethyl-5,6-dihydroquinazolin-4-yl)-2,3,4,5-tetrahydro-1,4-benzoxazepine] here?
The IC50 was ≤ 10 nM.

`Cc1nc2ncc(-c3ccc4c(c3)CN(c3ncnc(C)c3CC3CC3)CCO4)cc2[nH]1` [Example 493, 4-[5-(cyclopropylmethyl)-6-methylpyrimidin-4-yl]-7-(2-methyl-1H-imidazo[4,5-b]pyridin-6-yl)-2,3,4,5-tetrahydro-1,4-benzoxazepine] was tested. Which IC50 did it give?
Its IC50 is 10 to 50 nM.

How did the IC50 turn out when `CNCc1nc2c(c(N3CCOc4ccc(-c5cnc6nc(C)[nH]c6c5)cc4C3)n1)CC(C)(C)CC2` [Example 354, 1-{6,6-dimethyl-4-[7-(2-methyl-1H-imidazo[4,5-b]pyridin-6-yl)-2,3-dihydro-1,4-benzoxazepin-4(5H)-yl]-5,6,7,8-tetrahydroquinazolin-2-yl}-N-methylmethanamine] was run?
The IC50 was ≤ 10 nM.

With `CC1(C)CCc2ncnc(N3CCOc4ccc(-c5cnc(N)c(S(=O)(=O)N6CCC6)c5)cc4C3)c2C1` [Example 434, 3-(azetidin-1-ylsulfonyl)-5-[4-(6,6-dimethyl-5,6,7,8-tetrahydroquinazolin-4-yl)-2,3,4,5-tetrahydro-1,4-benzoxazepin-7-yl]pyridine-2-amine] as the compound, how does the IC50 read?
The IC50 was 10 to 50 nM.

With `COc1ccc2c(N3CCOc4ccc(-c5ccc6[nH]c(=O)[nH]c6c5)cc4C3)nc(C)nc2c1` [Example 296, 5-{4-[2-methyl-7-(methyloxy)quinazolin-4-yl]-2,3,4,5-tetrahydro-1,4-benzoxazepin-7-yl}-1,3-dihydro-2H-benzimidazol-2-one] as the compound, how does the IC50 read?
The IC50 was ≥ 2000 nM.

How did the IC50 turn out when `Cc1nc2ccc(-c3ccc4c(c3)CN(c3ncnc(C)c3C(C)C)CCO4)cc2[nH]1` [Example 66, 7-(2-methyl-1H-benzimidazol-6-yl)-4-[6-methyl-5-(1-methylethyl)pyrimidin-4-yl]-2,3,4,5-tetrahydro-1,4-benzoxazepine] was run?
The IC50 was ≤ 10 nM.

How did the IC50 turn out when `Cc1nc2ccc(-c3ccc4c(c3)CN(c3ncnc5scc(C)c35)CCO4)cc2[nH]1` [Example 47, 7-(2-methyl-1H-benzimidazol-6-yl)-4-(5-methylthieno[2,3-d]pyrimidin-4-yl)-2,3,4,5-tetrahydro-1,4-benzoxazepine] was run?
Its IC50 is ≥ 2000 nM.

With `CN(C)Cc1nc2c(c(N3CCOc4ccc(-c5ccc(Cl)c(C(N)=O)c5)cc4C3)n1)CC(C)(C)CC2` [Example 428, 2-chloro-5-(4-{2-[(dimethylamino)methyl]-6,6-dimethyl-5,6,7,8-tetrahydroquinazolin-4-yl}-2,3,4,5-tetrahydro-1,4-benzoxazepin-7-yl)benzamide] as the compound, how does the IC50 read?
Its IC50 is ≥ 2000 nM.

How did the IC50 turn out when `CC1(C)CCc2ncnc(N3CCOc4ccc(-c5cnc6[nH]c(C(F)F)nc6c5)cc4C3)c2C1` [Example 229, 7-[2-(difluoromethyl)-3H-imidazo[4,5-b]pyridin-6-yl]-4-(6,6-dimethyl-5,6,7,8-tetrahydroquinazolin-4-yl)-2,3,4,5-tetrahydro-1,4-benzoxazepine] was run?
Its IC50 is ≤ 10 nM.

Which IC50 does the source give for `CCNc1nc2ccc(-c3ccc4c(c3)CN(c3ncnc(Nc5ccc(OC)cc5)c3C)CCO4)cc2[nH]1` [Example 640, N-ethyl-6-[4-(5-methyl-6-{[4-(methyloxy)phenyl]amino}pyrimidin-4-yl)-2,3,4,5-tetrahydro-1,4-benzoxazepin-7-yl]-1H-benzimidazol-2-amine] here?
The IC50 was 250 to 1000 nM.

For `CCc1nc2cc(-c3ccc4c(c3)CN(c3ncnc5c3CC(C)(C)CC5)CCO4)cnc2[nH]1` [Example 220, 4-(6,6-dimethyl-5,6,7,8-tetrahydroquinazolin-4-yl)-7-(2-ethyl-3H-imidazo[4,5-b]pyridin-6-yl)-2,3,4,5-tetrahydro-1,4-benzoxazepine], which IC50 is on record?
Its IC50 is ≤ 10 nM.

With `CN(C)S(=O)(=O)c1cncc(-c2ccc3c(c2)CN(c2ncnc4c2CC(C)(C)CC4)CCO3)c1` [Example 521, 5-[4-(6,6-dimethyl-5,6,7,8-tetrahydroquinazolin-4-yl)-2,3,4,5-tetrahydro-1,4-benzoxazepin-7-yl]-N,N-dimethylpyridine-3-sulfonamide] as the compound, how does the IC50 read?
The IC50 was 250 to 1000 nM.
